Test results as given in patent US5627035A, “Peptides that block human immunodeficiency virus and methods of use thereof” (Syntello Vaccine Development AB, priority 1995, dated 1997).
Where a SMILES comes first, the peptide text is derived from it.

Tests used:
HTLV-111B/H9 New York = test: Infectivity assay HTLV-IIIB/H9 New York: p24 ELISA (absorbance 454 nm of diluted supernatant), syncytia, immunofluorescence; assay type: cell-based, HIV-1; settings: for # OF SYNCYTIA/WELL Day 14 / PERCENTAGE OF AG POS CELLS / p24 1/10 / p24 1/100 / p24 1/1,000: Table 6; for HIV infection by p24 synthesis and syncytia formation, in words: Tables 3-6
Description: Virus at 100 50% tissue culture infectious doses (TCID50) and peptides at concentrations of 250 and 25 μg/ml were added to the cells simultaneously and incubated for 2 hours at 4° C. with frequent stirring. Subsequently, the temperature was increased to 37° C. and the mixtures were subjected to a second incubation for 2 hours. Following the second incubation, the cells were centrifuged at 325 x g and washed once in RPMI medium (Gibco Laboratories, N.Y.). Cells, at a concentration of 5×10^5 /ml, were then added to 24 multidish well plates at a final volume of 1.5 ml of growth medium (RPMI supplemented with 10% fetal calf serum (FCS), antibiotics and polybrene (2 μg/ml)), with the addition of peptides at dilutions of 250 or 25 μg/ml. […] As additional controls, two HIV infected cell cultures (designated pos. controls 1 and 2, Tables 3-5) and two uninfected cell cultures (designated neg. controls 1 and 2) were used.
Infected cells were continuously monitored for formation of syncytia and the growth medium supernatants were analyzed at days 9-12 p.i. for p24 antigen which is an indicator of HIV replication.
Briefly, the following protocol was used for detection of the p24 antigen. HIV p24 antigen was determined using a rabbit anti-p24 polyclonal antiserum as capture antibody and a biotinylated rabbit anti-p24 polyclonal antibody was used as detecting antibody in an avidin-horse radish peroxidase (HRP) ELISA. The sensitivity of the assay allowed detection of approximately 50 pg of p24 antigen per ml supernatant. […] Serial dilutions of the supernatants were made so as to detect p24 concentration in the most accurate range (<2.0 absorbance units).
The number of infected cells were then determined by indirect immunofluorescence using a human HIV positive serum diluted 1/100 and FITC conjugated antihuman IgG (Bio Merieux, France) diluted 1/200.
In tables 3-6, the p24 content of the supernatants of infected cells was determined by diluting the supernatants of infected cells in serial tenfold dilutions (1/10, 1/100, 1/1000 and 1/10,000) and analyzing in ELISA as described above. Results are indicated by the absorbance values (454nm) of respective dilutions.
In tables 8 and 9, the p24 content of the supernatants of infected cells was determined by diluting the supernatants in serial tenfold dilutions (1/10, 1/100, 1/1,000) and analyzing by ELISA as described in Example 2. Results are indicated by the absorbance values (454 nm) of respective dilutions.

[1] = Humoral anti-TNP antibody response in mice pretreated with Gly-Pro-Gly, ELISA endpoint titer; assay type: in vivo; settings: 5 mg/day/animal for 5 days
Description: The effects of Gly-Pro-Gly on development of humoral specific antibody responses was examined in mice. For this purpose, Gly-Pro-Gly was administered in adult (4 weeks old, sex matched) Swiss albino outbred mice by intraperitoneal injections given daily for 5 consecutive days. The control group was not given Gly-Pro-Gly, whereas the second and third groups were given 0.5 mg and 5 mg Gly-Pro-Gly respectively. […]
Serum antibody responses to the TNP group were monitored by the ELISA technique performed on serum samples collected 2 weeks after the second injection. […]
ELISA assays were performed as follows. […] TNP-reactive antibodies were then detected by stepwise addition of enzyme labelled goat antibodies to mouse IgG1, IgG2a, IgG2b, IgG3 or IgM (all obtained from Southern Biotechnology Associates, Birmingham, Ala.) and enzyme substrate. Results are expressed as endpoint titer, the latter being defined as the reciprocal of the highest dilution of serum giving an ELISA absorbance value equal to 3 times that of control wells exposed to buffer alone but not serum.

normal T cells = test: In vitro proliferative response of normal T cells to mitogens, stimulation index; assay type: cell-based, human
Description: The in vitro proliferative response of normal T cells was examined after concurrent exposure of unfractionated, and T cell enriched (CD4^+ or CD8^+ enriched using DYNABEADS M-450 CD4 and DYNABEADS M-450 CD, magnetic beads according to the manufacturer's instructions, DYNAL A. S. Oslo Norway).
The results are indicated as the stimulation index which is calculated as follows: the ratio between radioactive Thymidine incorporated in cell cultures exposed to mitogen alone or mitogen plus Gly-Pro-Gly divided by the radioactive Thymidine incorporated in identical cell cultures exposed to medium alone.

[2] = In vivo toxicity: growth of mice given intraperitoneal Gly-Pro-Gly; design: Mean weight of mice: unit not given here
From the text: In an in vivo test of the toxicity of Gly-Pro-Gly, groups of mice were given intraperitoneal injections of the substance starting at an age of 6 days. FIG. 3 also graphically depicts the results. […] The peptides are thus nontoxic even when given in large doses.

[3] = test system: herpes simplex virus type I (HSV-1) strain McIntyre; test: Yield inhibition assay of HSV-1 in GMK cells; assay type: cell-based; settings: plaque reduction and virus yields
Description: The yield inhibition assay was performed as follows: HSV-1 was inoculated at a multiplicity of 0.5 pfu per GMK cell in the presence of the respective peptide at concentrations of 250 and 25 μg/ml. Virus adsorption was performed for 60 min. at room temperature. The cells were then rinsed five times with Hanks' Balanced Salt Solution (BSS) and incubated in a 5% CO2 atmosphere at 37° C. with maintenance medium containing either peptides or acyclovir, according to the methods described in "Proceedings of a Symposium on Acyclovir", The American Journal of Medicine, Jul. 20, (1982) which is incorporated herein by reference, or without any additives. Twenty-four hours p.i. the cells were freeze-thawed, scraped into the medium and tested for virus yield by the infectivity assay as outlined in Example 2. The results are shown in Table 7 where the plaque reduction values are the mean of two cultures and the yield of HSV-1 after 24 hours is the mean of two determinations and the values are presented in millions of pfu/ml.

Compound: Gly-Pro-Ala
- # OF SYNCYTIA/WELL Day 14 (HTLV-111B/H9 New York; 25 μg/ml): 85
- PERCENTAGE OF AG POS CELLS (HTLV-111B/H9 New York; 25 μg/ml): 30-40%
- p24 1/10 (HTLV-111B/H9 New York; 25 μg/ml): > 2.0
- p24 1/100 (HTLV-111B/H9 New York; 25 μg/ml): 0.616
- p24 1/1,000 (HTLV-111B/H9 New York; 25 μg/ml): 0.154
- # OF SYNCYTIA/WELL Day 14 (HTLV-111B/H9 New York; 250 μg/ml): 20
- PERCENTAGE OF AG POS CELLS (HTLV-111B/H9 New York; 250 μg/ml): 20-30%
- p24 1/10 (HTLV-111B/H9 New York; 250 μg/ml): > 2.0
- p24 1/100 (HTLV-111B/H9 New York; 250 μg/ml): 0.299
- p24 1/1,000 (HTLV-111B/H9 New York; 250 μg/ml): 0.059
- HIV infection by p24 synthesis and syncytia formation, in words (HTLV-111B/H9 New York): no inhibitory effect on HIV replication

Compound: NCC(=O)N1CCC[C@H]1C(=O)NCC(N)=O [Gly-Pro-Gly] (H-Gly-Pro-Gly-NH2)
- humoral immune responsiveness of mice [1]: do not appreciably influence
- direct anti-proliferative properties on T cells (normal T cells; doses as high as 20 μM): marginal if any
- effect on normal T cell and B cell functions (normal T cells; in vitro human, in vivo murine): no effect
- Mean weight of mice ([2]; Feb. 25, 0.001 g GPG i.p.): 5.66
- Mean weight of mice ([2]; Feb. 25, 0.1 g GPG i.p.): 4.98
- Mean weight of mice ([2]; Feb. 25, 1 g GPG i.p.): 5.62
- Mean weight of mice ([2]; Feb. 26, 0.001 g GPG i.p.): 6.24
- Mean weight of mice ([2]; Feb. 26, 0.1 g GPG i.p.): 5.54
- Mean weight of mice ([2]; Feb. 26, 1 g GPG i.p.): 6.27
- Mean weight of mice ([2]; Feb. 27, 0.001 g GPG i.p.): 6.76
- Mean weight of mice ([2]; Feb. 27, 0.1 g GPG i.p.): 6.41
- Mean weight of mice ([2]; Feb. 27, 1 g GPG i.p.): 7.04
- Mean weight of mice ([2]; Feb. 28, 0.001 g GPG i.p.): 7.40
- Mean weight of mice ([2]; Feb. 28, 0.1 g GPG i.p.): 7.11
- Mean weight of mice ([2]; Feb. 28, 1 g GPG i.p.): 7.80
- Mean weight of mice ([2]; March 1, 0.001 g GPG i.p.): 7.83
- Mean weight of mice ([2]; March 1, 0.1 g GPG i.p.): 8.00
- Mean weight of mice ([2]; March 1, 1 g GPG i.p.): 8.61
- Mean weight of mice ([2]; March 4, 0.001 g GPG i.p.): 9.22
- Mean weight of mice ([2]; March 4, 0.1 g GPG i.p.): 9.35
- Mean weight of mice ([2]; March 4, 1 g GPG i.p.): 10.53
- Mean weight of mice ([2]; March 5, 0.001 g GPG i.p.): 9.63
- Mean weight of mice ([2]; March 5, 0.1 g GPG i.p.): 10.04
- Mean weight of mice ([2]; March 5, 1 g GPG i.p.): 11.22
- Mean weight of mice ([2]; March 6, 0.001 g GPG i.p.): 9.88
- Mean weight of mice ([2]; March 6, 0.1 g GPG i.p.): 10.35
- Mean weight of mice ([2]; March 6, 1 g GPG i.p.): 11.44
- Mean weight of mice ([2]; March 7, 0.001 g GPG i.p.): 9.95
- Mean weight of mice ([2]; March 7, 0.1 g GPG i.p.): 11.17
- Mean weight of mice ([2]; March 7, 1 g GPG i.p.): 12.12
- Mean weight of mice ([2]; March 8, 0.001 g GPG i.p.): 10.30
- Mean weight of mice ([2]; March 8, 0.1 g GPG i.p.): 11.38
- Mean weight of mice ([2]; March 8, 1 g GPG i.p.): 12.69
- Mean weight of mice ([2]; March 15, 0.001 g GPG i.p., no injections 3/8-3/15): 16.59
- Mean weight of mice ([2]; March 15, 0.1 g GPG i.p., no injections 3/8-3/15): 17.46
- Mean weight of mice ([2]; March 15, 1 g GPG i.p., no injections 3/8-3/15): 19.85
- influence on the growth of mice ([2]; compared with controls): no significant influence

Compound: Gly-Pro-Gly-Gly (GPGG; printed: Gly-Pro-Gly-Gly)
- # OF SYNCYTIA/WELL Day 14 (HTLV-111B/H9 New York; 25 μg/ml): 15
- PERCENTAGE OF AG POS CELLS (HTLV-111B/H9 New York; 25 μg/ml): 25-30%
- p24 1/10 (HTLV-111B/H9 New York; 25 μg/ml): 0.933
- p24 1/100 (HTLV-111B/H9 New York; 25 μg/ml): 0.11
- p24 1/1,000 (HTLV-111B/H9 New York; 25 μg/ml): 0.016
- # OF SYNCYTIA/WELL Day 14 (HTLV-111B/H9 New York; 250 μg/ml): 20
- PERCENTAGE OF AG POS CELLS (HTLV-111B/H9 New York; 250 μg/ml): 30%
- p24 1/10 (HTLV-111B/H9 New York; 250 μg/ml): 0.523
- p24 1/100 (HTLV-111B/H9 New York; 250 μg/ml): 0.052
- p24 1/1,000 (HTLV-111B/H9 New York; 250 μg/ml): 0.007
- HIV infection by p24 synthesis and syncytia formation, in words (HTLV-111B/H9 New York): no inhibitory effect on HIV replication

Compound: Nc1nc2c(ncn2COCCO)c(=O)[nH]1 [Acyclovir, acyclovir]
- capacity of HSV-1 to replicate in GMK cells, in words [3]: significantly reduced
